According to patent publication US20230278996A1, “YKL-40 INHIBITORS AND THEIR THERAPEUTIC APPLICATIONS” (Molecure S.A., priority 2022, published 2023):

molecular target: YKL-40 (Homo sapiens (Human), UniProt P36222); assay: YKL-40:4 assay, competitive chitin binding site AlphaScreen; details: competition with biotinylated compound 4 (20 nM), YKL-40-histag 2.5 nM
Sequence (P36222 22-383): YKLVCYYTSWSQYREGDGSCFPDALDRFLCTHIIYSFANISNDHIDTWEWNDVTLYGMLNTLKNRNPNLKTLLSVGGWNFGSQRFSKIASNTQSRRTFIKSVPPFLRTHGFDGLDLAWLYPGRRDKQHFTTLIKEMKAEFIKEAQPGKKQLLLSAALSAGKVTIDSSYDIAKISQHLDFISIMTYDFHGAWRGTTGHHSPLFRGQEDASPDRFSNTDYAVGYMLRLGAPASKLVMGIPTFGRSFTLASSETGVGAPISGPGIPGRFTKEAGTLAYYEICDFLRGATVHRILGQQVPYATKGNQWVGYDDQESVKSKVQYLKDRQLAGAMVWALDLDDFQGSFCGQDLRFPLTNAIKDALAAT

IC50 [µM] | Compound
> 100 | Cc1noc(N2CCC(N3C[C@H](C)OC[C@@H]3Cc3ccc(Cl)cc3)CC2)n1 [compound 188, (2S,5S)-5-(4-chlorobenzyl)-2-methyl-4-(1-(3-methyl-1,2,4-oxadiazol-5-yl)piperidin-4-yl)morpholine 2,2,2-trifluoroacetate]
1 to 10 | CC1CC(N2C[C@H](C)OC[C@@H]2Cc2ccc(Cl)cc2)CCN1c1cc(Cl)ccn1 (stereo partly drawn) [Example 33, (2S,5S)-5-(4-chlorobenzyl)-4-(1-(4-chloropyridin-2-yl)-2-methylpiperidin-4-yl)-2-methylmorpholine 2,2,2-trifluoroacetate]
0.1 to 1 | CO[C@H](C)CN1C[C@H](Cc2ccc(Cl)cc2)N(C2CCN(c3ccccn3)CC2)C[C@@H]1C [compound 107, (2S,5S)-2-(4-chlorobenzyl)-4-((R)-2-methoxypropyl)-5-methyl-1-(1-(pyridin-2-yl)piperidin-4-yl)piperazine 2,2,2-trifluoroacetate]
< 0.1 | CC(C)[C@H]1CN(C2CCN(c3ccccn3)CC2)[C@@H](Cc2ccc(Cl)cc2)CN1C [compound 62, (2S,5S)-2-(4-chlorobenzyl)-5-isopropyl-4-methyl-1-(1-(pyridin-2-yl)piperidin-4-yl)piperazine 2,2,2-trifluoroacetate]
> 100 | C[C@H]1CN(C2CCN(c3cccnc3)CC2)[C@@H](Cc2ccc(Cl)cc2)CO1 [Example 27, (2S,5S)-5-(4-chlorobenzyl)-2-methyl-4-(1-(pyridin-3-yl)piperidin-4-yl)morpholine 2,2,2-trifluoroacetate]
> 100 | C[C@H]1CN(C2CCN(c3ccccc3F)CC2)[C@@H](Cc2ccc(Cl)cc2)CO1 [compound 126, (2S,5S)-5-(4-chlorobenzyl)-4-(1-(2-fluorophenyl)piperidin-4-yl)-2-methylmorpholine 2,2,2-trifluoroacetate]
1 to 10 | C[C@H]1CN(C2CCN(c3ncc(F)cn3)CC2)[C@@H](Cc2ccc(Cl)cc2)CO1 [compound 46, (2S,5S)-5-(4-chlorobenzyl)-4-(1-(5-fluoropyrimidin-2-yl)piperidin-4-yl)-2-methylmorpholine 2,2,2-trifluoroacetate]
> 100 | CN1C[C@H](Cc2ccc(Cl)cc2)N(C2CCN(c3cc(Cl)ccn3)CC2)C[C@@H]1COc1ccc2ccccc2c1 [compound 84, (2S,5R)-2-(4-chlorobenzyl)-1-(1-(4-chloropyridin-2-yl)piperidin-4-yl)-4-methyl-5-((naphthalen-2-yloxy)methyl)piperazine 2,2,2-trifluoroacetate]
0.1 to 1 | C[C@H]1CN(C2CCN(c3ncccc3C#N)CC2)[C@@H](Cc2ccc(Cl)cc2)CO1 [Example 22, 2-(4-((2S,5S)-5-(4-chlorobenzyl)-2-methylmorpholino)piperidin-1-yl)nicotinonitrile 2,2,2-trifluoroacetate]
> 100 | CC(C)c1nc(N2CCC(N3C[C@H](C)OC[C@@H]3Cc3ccc(Cl)cc3)CC2)no1 [compound 163, (2S,5S)-5-(4-chlorobenzyl)-4-(1-(5-isopropyl-1,2,4-oxadiazol-3-yl)piperidin-4-yl)-2-methylmorpholine 2,2,2-trifluoroacetate]

Compound | IC50 [µM]
CO[C@@H]1CCN(C2CCN(c3ccccn3)CC2)[C@@H](Cc2ccc(Cl)cc2)C1 [compound 108, (2S,4R)-2-(4-chlorobenzyl)-4-methoxy-1′-(pyridin-2-yl)-1,4′-bipiperidine 2,2,2-trifluoroacetate] | < 0.1
COC(C)(C)CN1C[C@H](Cc2ccc(Cl)cc2)N(C2CCN(c3ccccn3)CC2)C[C@@H]1CC(C)C [compound 100, (2S,5S)-2-(4-chlorobenzyl)-5-isobutyl-4-(2-methoxy-2-methylpropyl)-1-(1-(pyridin-2-yl)piperidin-4-yl)piperazine 2,2,2-trifluoroacetate] | 1 to 10
C[C@H]1CN(C2CCN(c3cc(C(N)=O)ccn3)CC2)[C@@H](Cc2ccc(Cl)cc2)CO1 [compound 132, 2-(4-((2S,5S)-5-(4-chlorobenzyl)-2-methylmorpholino)piperidin-1-yl)isonicotinamide 2,2,2-trifluoroacetate] | > 100
